Results from patent US20110118262A1, “Pyrrolidinyl and Piperidinyl Compounds Useful as NHE-1 Inhibitiors” (BOEHRINGER INGELHEIM INTERNATIONAL GMBH, priority 2008, published 2011).

The compounds below were run against T1, NHE-1 (Homo sapiens, UniProt P19634) (assay: Evaluation of NHE-1 Inhibition (pHi) in HT-29 cells). Conditions: BCECF dye, 50% inhibition of the intracellular pH recovery, read-out: NHE1 HT29 pHi IC50.
T1 construct: endogenous in cells; host or cells: HT-29
Assay type: cell-based
In short: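 Intracellular pH measured with BCECF in HT-29 cells after 24 h culture. Cells dye-loaded 30 min at 37° C, then acid-loaded with NH4Cl-containing choline buffer (pH 7.5) for 30 min at RT. Compounds added on an FDSS6000 fluorescence reader.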

T1 sequence (P19634 whole entry): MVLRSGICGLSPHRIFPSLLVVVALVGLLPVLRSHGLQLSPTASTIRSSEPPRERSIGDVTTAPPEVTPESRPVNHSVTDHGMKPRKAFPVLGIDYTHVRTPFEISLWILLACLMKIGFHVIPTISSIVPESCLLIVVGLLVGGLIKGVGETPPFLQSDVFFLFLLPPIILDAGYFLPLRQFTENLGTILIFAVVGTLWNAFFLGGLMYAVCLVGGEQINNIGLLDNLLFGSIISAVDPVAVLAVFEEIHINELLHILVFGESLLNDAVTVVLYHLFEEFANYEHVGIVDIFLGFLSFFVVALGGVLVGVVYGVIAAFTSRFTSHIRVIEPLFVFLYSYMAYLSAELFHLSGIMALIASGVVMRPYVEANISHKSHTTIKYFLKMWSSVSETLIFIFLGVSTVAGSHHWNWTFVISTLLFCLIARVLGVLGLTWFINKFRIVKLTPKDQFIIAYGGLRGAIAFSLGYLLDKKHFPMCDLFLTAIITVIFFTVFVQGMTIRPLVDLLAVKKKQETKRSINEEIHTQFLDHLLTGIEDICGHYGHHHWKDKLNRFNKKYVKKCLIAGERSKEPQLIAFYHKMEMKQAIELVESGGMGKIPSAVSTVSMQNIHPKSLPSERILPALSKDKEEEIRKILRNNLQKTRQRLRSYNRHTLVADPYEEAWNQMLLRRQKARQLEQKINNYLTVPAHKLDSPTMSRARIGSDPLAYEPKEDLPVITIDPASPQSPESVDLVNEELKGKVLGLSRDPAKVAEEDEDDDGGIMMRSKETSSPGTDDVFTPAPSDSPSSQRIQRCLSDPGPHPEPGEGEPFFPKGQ

Row | IC50 [nM] | Compound
1 | 19 | N=C(N)NC(=O)c1ccc(C2CCN(C(=O)c3ccc[nH]3)C2)c(C(F)(F)F)c1 (stereo not shown) [N-{4-[1-(1H-Pyrrole-2-carbonyl)-pyrrolidin-3-yl]-3-trifluoromethyl-benzoyl}-guanidine]
2 | 68 | CC(C)(C)C(=O)N1CCC(c2ccc(C(=O)NC(=N)N)cc2C(F)(F)F)CC1 [N-{4-[1-(2,2-Dimethyl-propionyl)-piperidin-4-yl]-3-trifluoromethyl-benzoyl}-guanidine]
3 | 130 | N=C(N)NC(=O)c1ccc(C2CCN(C(=O)c3ccc4c(c3)OCCO4)CC2)c(C(F)(F)F)c1 [N-{4-[1-(2,3-Dihydro-benzo[1,4]dioxine-6-carbonyl)-piperidin-4-yl]-3-trifluoromethyl-benzoyl}-guanidine]
4 | 23 | N=C(N)NC(=O)c1ccc(C2CCN(C(=O)c3ccc4c(c3)CCO4)CC2)c(C(F)(F)F)c1 [N-{4-[1-(2,3-Dihydro-benzofuran-5-carbonyl)-piperidin-4-yl]-3-trifluoromethyl-benzoyl}-guanidine]
5 | 46 | COc1cccc(C(=O)N2CCC(c3ccc(C(=O)NC(=N)N)cc3C(F)(F)F)CC2)c1OC [N-{4-[1-(2,3-Dimethoxy-benzoyl)-piperidin-4-yl]-3-trifluoromethyl-benzoyl}-guanidine]
6 | 10 | Cc1cc(C2CCN(C(=O)C(C)(C)N)CC2)c(C(F)(F)F)cc1C(=O)NC(=N)N [N-{4-[1-(2-Amino-2-methyl-propionyl)-piperidin-4-yl]-2-methyl-5-trifluoromethyl-benzoyl}-guanidine]
7 | 8 | CC(C)(N)C(=O)N1CCC(c2ccc(C(=O)NC(=N)N)cc2C(F)(F)F)CC1 [N-{4-[1-(2-Amino-2-methyl-propionyl)-piperidin-4-yl]-3-trifluoromethyl-benzoyl}-guanidine]
8 | 16 | CC(C)(C)C(N)C(=O)N1CCC(c2ccc(C(=O)NC(=N)N)cc2C(F)(F)F)CC1 (stereo not shown) [N-{4-[1-(2-Amino-3,3-dimethyl-butyryl)-piperidin-4-yl]-3-trifluoromethyl-benzoyl}-guanidine]
9 | 19 | N=C(N)NC(=O)c1ccc(C2CCN(C(=O)C(N)CC3CC3)CC2)c(C(F)(F)F)c1 (stereo not shown) [N-{4-[1-(2-Amino-3-cyclopropyl-propionyl)-piperidin-4-yl]-3-trifluoromethyl-benzoyl}-guanidine]
10 | 5 | N=C(N)NC(=O)c1ccc(C2CCN(C(=O)C(N)CO)CC2)c(C(F)(F)F)c1 (stereo not shown) [N-{4-[1-(2-Amino-3-hydroxy-propionyl)-piperidin-4-yl]-3-trifluoromethyl-benzoyl}-guanidine]
11 | 12 | CC(C)C(N)C(=O)N1CCC(c2ccc(C(=O)NC(=N)N)cc2C(F)(F)F)CC1 (stereo not shown) [N-{4-[1-(2-Amino-3-methyl-butyryl)-piperidin-4-yl]-3-trifluoromethyl-benzoyl}-guanidine]
12 | 19 | N=C(N)NC(=O)c1ccc(C2CCN(C(=O)C(N)Cc3ccccc3)CC2)c(C(F)(F)F)c1 (stereo not shown) [N-{4-[1-(2-Amino-3-phenyl-propionyl)-piperidin-4-yl]-3-trifluoromethyl-benzoyl}-guanidine]
13 | 32 | N=C(N)NC(=O)c1ccc(C2CCN(C(=O)C(N)Cc3ccncc3)CC2)c(C(F)(F)F)c1 (stereo not shown) [N-{4-[1-(2-Amino-3-pyridin-4-yl-propionyl)-piperidin-4-yl]-3-trifluoromethyl-benzoyl}-guanidine]
14 | 35 | N=C(N)NC(=O)c1ccc(C2CCN(C(=O)C(N)Cc3cccs3)CC2)c(C(F)(F)F)c1 (stereo not shown) [N-{4-[1-(2-Amino-3-thiophen-2-yl-propionyl)-piperidin-4-yl]-3-trifluoromethyl-benzoyl}-guanidine]
15 | 40 | CC(C)CC(N)C(=O)N1CCC(c2ccc(C(=O)NC(=N)N)cc2C(F)(F)F)CC1 (stereo not shown) [N-{4-[1-(2-Amino-4-methyl-pentanoyl)-piperidin-4-yl]-3-trifluoromethyl-benzoyl}-guanidine]
16 | 13 | CSCCC(N)C(=O)N1CCC(c2ccc(C(=O)NC(=N)N)cc2C(F)(F)F)CC1 (stereo not shown) [N-{4-[1-(2-Amino-4-methylsulfanyl-butyryl)-piperidin-4-yl]-3-trifluoromethyl-benzoyl}-guanidine]
17 | 4 | N=C(N)NC(=O)c1ccc(C2CCN(C(=O)CN)CC2)c(C(F)(F)F)c1 [N-{4-[1-(2-Amino-acetyl)-piperidin-4-yl]-3-trifluoromethyl-benzoyl}-guanidine]
18 | 5 | CC(N)C(=O)N1CCC(c2ccc(C(=O)NC(=N)N)cc2C(F)(F)F)CC1 (stereo not shown) [N-{4-[1-(2-Amino-propionyl)-piperidin-4-yl]-3-trifluoromethyl-benzoyl}-guanidine]
19 | 60 | CS(=O)(=O)c1ccc(C(=O)N2CCC(c3ccc(C(=O)NC(=N)N)cc3C(F)(F)F)CC2)c(Cl)c1 [N-{4-[1-(2-Chloro-4-methanesulfonyl-benzoyl)-piperidin-4-yl]-3-trifluoromethyl-benzoyl}-guanidine]
20 | 119 | N=C(N)NC(=O)c1ccc(C2CCN(C(=O)c3ccccc3Cl)CC2)c(C(F)(F)F)c1 [N-{4-[1-(2-Chloro-benzoyl)-piperidin-4-yl]-3-trifluoromethyl-benzoyl}-guanidine]

Row | IC50 [nM] | Compound
21 | 93 | N#Cc1ccccc1C(=O)N1CC=C(c2ccc(C(=O)NC(=N)N)cc2C(F)(F)F)CC1 [N-{4-[1-(2-Cyano-benzoyl)-1,2,3,6-tetrahydro-pyridin-4-yl]-3-trifluoromethyl-benzoyl}-guanidine]
22 | 62 | N#Cc1ccccc1C(=O)N1CCC(c2ccc(C(=O)NC(=N)N)cc2C(F)(F)F)CC1 [N-{4-[1-(2-Cyano-benzoyl)-piperidin-4-yl]-3-trifluoromethyl-benzoyl}-guanidine]
23 | 5 | CN(C)CC(=O)N1CCC(c2ccc(C(=O)NC(=N)N)cc2C(F)(F)F)CC1 [N-{4-[1-(2-Dimethylamino-acetyl)-piperidin-4-yl]-3-trifluoromethyl-benzoyl}-guanidine]
24 | 305 | N=C(N)NC(=O)c1ccc(C2CCN(C(=O)c3ccc(C(F)(F)F)cc3F)CC2)c(C(F)(F)F)c1 [N-{4-[1-(2-Fluoro-4-trifluoromethyl-benzoyl)-piperidin-4-yl]-3-trifluoromethyl-benzoyl}-guanidine]
25 | 125 | N=C(N)NC(=O)c1ccc(C2CCN(C(=O)c3ccccc3F)CC2)c(C(F)(F)F)c1 [N-{4-[1-(2-Fluoro-benzoyl)-piperidin-4-yl]-3-trifluoromethyl-benzoyl}-guanidine]
26 | 16 | Cc1cc(C2CCN(C(=O)C(C)(C)O)CC2)c(C(F)(F)F)cc1C(=O)NC(=N)N [N-{4-[1-(2-Hydroxy-2-methyl-propionyl)-piperidin-4-yl]-2-methyl-5-trifluoromethyl-benzoyl}-guanidine]
27 | 6 | N=C(N)NC(=O)c1ccc(C2CCN(C(=O)Cn3ccnc3)CC2)c(C(F)(F)F)c1 [N-{4-[1-(2-Imidazol-1-yl-acetyl)-piperidin-4-yl]-3-trifluoromethyl-benzoyl}-guanidine]
28 | 54 | C[S+]([O-])c1ccccc1C(=O)N1CCC(c2ccc(C(=O)NC(=N)N)cc2C(F)(F)F)CC1 (stereo not shown) [N-{4-[1-(2-Methanesulfinyl-benzoyl)-piperidin-4-yl]-3-trifluoromethyl-benzoyl}-guanidine]
29 | 73 | CS(=O)(=O)c1ccccc1C(=O)N1CC=C(c2ccc(C(=O)NC(=N)N)cc2C(F)(F)F)CC1 [N-{4-[1-(2-Methanesulfonyl-benzoyl)-1,2,3,6-tetrahydro-pyridin-4-yl]-3-trifluoromethyl-benzoyl}-guanidine]
30 | 69 | CS(=O)(=O)c1ccccc1C(=O)N1CCC(c2ccc(C(=O)NC(=N)N)cc2C(F)(F)F)CC1 [N-{4-[1-(2-Methanesulfonyl-benzoyl)-piperidin-4-yl]-3-trifluoromethyl-benzoyl}-guanidine]
31 | 22 | COCC(=O)N1CCC(c2ccc(C(=O)NC(=N)N)cc2C(F)(F)F)CC1 [N-{4-[1-(2-Methoxy-acetyl)-piperidin-4-yl]-3-trifluoromethyl-benzoyl}-guanidine]
32 | 42 | COc1ncccc1C(=O)N1CCC(c2ccc(C(=O)NC(=N)N)cc2C(F)(F)F)CC1 [N-{4-[1-(2-Methoxy-pyridine-3-carbonyl)-piperidin-4-yl]-3-trifluoromethyl-benzoyl}-guanidine]
33 | 40 | COc1cc(C(=O)N2CCC(c3ccc(C(=O)NC(=N)N)cc3C(F)(F)F)CC2)ccn1 [N-{4-[1-(2-Methoxy-pyridine-4-carbonyl)-piperidin-4-yl]-3-trifluoromethyl-benzoyl}-guanidine]
34 | 51 | Cc1ccccc1C(=O)N1CCC(c2ccc(C(=O)NC(=N)N)cc2C(F)(F)F)CC1 [N-{4-[1-(2-Methyl-benzoyl)-piperidin-4-yl]-3-trifluoromethyl-benzoyl}-guanidine]
35 | 12 | CC1(C(=O)N2CCC(c3ccc(C(=O)NC(=N)N)cc3C(F)(F)F)CC2)CCCN1 (stereo not shown) [N-{4-[1-(2-Methyl-pyrrolidine-2-carbonyl)-piperidin-4-yl]-3-trifluoromethyl-benzoyl}-guanidine]
36 | 25 | N=C(N)NC(=O)c1ccc(C2CCN(C(=O)CN3CCOCC3)CC2)c(C(F)(F)F)c1 [N-{4-[1-(2-Morpholin-4-yl-acetyl)-piperidin-4-yl]-3-trifluoromethyl-benzoyl}-guanidine]
37 | 27 | N=C(N)NC(=O)c1ccc(C2CCN(C(=O)Cc3cccnc3)CC2)c(C(F)(F)F)c1 [N-{4-[1-(2-Pyridin-3-yl-acetyl)-piperidin-4-yl]-3-trifluoromethyl-benzoyl}-guanidine]
38 | 6 | Cc1cc(C2CCN(C(=O)CN(C)C)CC2)c(C(F)(F)F)cc1C(=O)NC(=N)N [N-{4-[1-(2-dimethylamino-acetyl)-piperidin-4-yl]-2-methyl-5-trifluoromethyl-benzoyl}-guanidine]
39 | 8 | N=C(N)NC(=O)c1ccc(C2CCN(C(=O)CCN)CC2)c(C(F)(F)F)c1 [N-{4-[1-(3-Amino-propionyl)-piperidin-4-yl]-3-trifluoromethyl-benzoyl}-guanidine]
40 | 180 | N=C(N)NC(=O)c1ccc(C2CCN(C(=O)c3cccc(Br)c3)CC2)c(C(F)(F)F)c1 [N-{4-[1-(3-Bromo-benzoyl)-piperidin-4-yl]-3-trifluoromethyl-benzoyl}-guanidine]
